# Results published in ChEMBL document CHEMBL5150076, “Discovery of Novel Orally Bioavailable Triazoles with Potent and Broad-Spectrum Antifungal Activity In Vitro and In Vivo” (J Med Chem, 2022).
# The source made the active and inactive calls. No cut-off for these calls is given here.
# What was measured:
# [1] = system: Candida albicans; assay: Antifungal activity against Candida albicans 25#; format: functional
# [2] = system: Candida albicans; assay: Antifungal activity against Candida albicans SC5314 incubated for 24 hrs by microbroth dilution method; format: functional
# [3] = system: Cryptococcus neoformans; assay: Antifungal activity against Cryptococcus neoformans H99 infected in ICR mouse assessed as delay in mortality at 2 mg/kg, po qd infected with fungus for 2 hrs prior to compound addition for 7 days and measured for 20 days; format: functional, organism-based; conditions: time 20.0 day
# [4] = system: Candida albicans; assay: Antifungal activity against Candida albicans 162; format: functional
# [5] = target: T1, Lanosterol 14-alpha demethylase (Candida albicans (strain SC5314 / ATCC MYA-2876) (Yeast), UniProt P10613); assay: Inhibition of CYP51 in Candida albicans SC5314 assessed as sterol level at 4 ug/ml measured after 12 hrs by GC-MS analysis (reference value: 25.23%); set-up: scale not given: the % may be the effect or the level left; conditions: at 4 µg/mL
# T1 sequence (P10613 whole entry): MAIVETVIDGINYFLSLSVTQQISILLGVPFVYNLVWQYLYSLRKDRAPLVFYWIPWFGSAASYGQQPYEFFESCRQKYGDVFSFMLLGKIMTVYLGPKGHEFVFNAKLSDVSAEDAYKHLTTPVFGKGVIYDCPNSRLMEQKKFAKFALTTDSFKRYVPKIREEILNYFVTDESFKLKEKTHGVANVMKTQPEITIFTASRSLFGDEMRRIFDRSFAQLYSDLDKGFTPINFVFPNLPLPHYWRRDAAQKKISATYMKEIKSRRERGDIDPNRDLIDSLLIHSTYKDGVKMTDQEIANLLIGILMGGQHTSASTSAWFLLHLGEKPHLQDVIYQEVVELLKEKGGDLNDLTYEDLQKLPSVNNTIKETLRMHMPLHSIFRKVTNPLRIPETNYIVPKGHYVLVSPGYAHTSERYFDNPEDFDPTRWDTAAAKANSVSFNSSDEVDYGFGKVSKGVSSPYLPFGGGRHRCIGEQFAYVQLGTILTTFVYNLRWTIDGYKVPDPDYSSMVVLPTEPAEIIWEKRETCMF
# [6] = system: Cryptococcus neoformans; assay: Antifungal activity against Cryptococcus neoformans H99 infected in ICR mouse assessed as median survival time at 2 mg/kg, po qd infected with fungus for 2 hrs prior to compound addition for 7 days and measured for 20 days; format: functional; conditions: time 20 day
# [7] = system: [Candida] auris; assay: Antifungal activity against Candida auris 887; format: functional; conditions: Candidozyma auris
# [8] = system: Candida albicans; assay: Antifungal activity against Candida albicans 14#; format: functional
# [9] = Induction of hemolysis in rabbit RBC at 64 ug/ml incubated for 1 hr; format: toxicity, cell-based, Oryctolagus cuniculus, Erythrocyte; conditions: red blood cells, at 64 µg/mL, read-out: Activity
# [10] = system: Nakaseomyces glabratus; assay: Antifungal activity against Candida glabrata ATCC2001; format: functional
# [11] = in vitro; conditions: human, Caco-2 cells; at 64 µg/mL
# [12] = system: Candida albicans; assay: Antifungal activity against Candida albicans SC5314 infected in ICR mouse assessed as median survival time at 0.5 mg/kg, po qd infected with fungus for 2 hrs prior to compound addition for 7 days and measured for 20 days; format: functional; conditions: time 20 day
# [13] = system: [Candida] auris; assay: Antifungal activity against Candida auris 791; format: functional; conditions: Candidozyma auris
# [14] = system: Pichia kudriavzevii; assay: Antifungal activity against Candida krusei 463; format: functional
# [15] = system: [Candida] auris; assay: Antifungal activity against Candida auris D12; format: functional; conditions: Candidozyma auris
# [16] = system: Candida tropicalis; assay: Antifungal activity against Candida tropicalis ATCC750; format: functional
# [17] = target: T1, Lanosterol 14-alpha demethylase; assay: Inhibition of CYP51 in Candida albicans SC5314 assessed as eburicol level at 4 ug/ml measured after 12 hrs by GC-MS analysis (reference value: 0.00%); set-up: scale not given: the % may be the effect or the level left; conditions: at 4 µg/mL
# [18] = system: Candida albicans; assay: Antifungal activity against Candida albicans Y0109; format: functional
# [19] = system: Candida tropicalis; assay: Antifungal activity against Candida tropicalis 112936; format: functional
# [20] = target: T1, Lanosterol 14-alpha demethylase; assay: Inhibition of CYP51 in Candida albicans SC5314 assessed as sterol level at 0.5 ug/ml measured after 12 hrs by GC-MS analysis (reference value: 25.23%); set-up: scale not given: the % may be the effect or the level left; conditions: at 0.5 µg/mL
# [21] = target: T1, Lanosterol 14-alpha demethylase; assay: Inhibition of CYP51 in Candida albicans SC5314 assessed as lanosterol level at 0.5 ug/ml measured after 12 hrs by GC-MS analysis (reference value: 2.18%); set-up: scale not given: the % may be the effect or the level left; conditions: at 0.5 µg/mL
# [22] = system: Candida albicans; assay: Antifungal activity against Candida albicans 20#; format: functional
# [23] = system: Candida albicans; assay: Antifungal activity against Candida albicans SC5314 infected in ICR mouse assessed as delay in mortality at 0.5 mg/kg, po qd infected with fungus for 2 hrs prior to compound addition for 7 days and measured for 20 days; format: functional, organism-based; conditions: time 20.0 day
# [24] = system: Candida parapsilosis; assay: Antifungal activity against Candida parapsilosis 700; format: functional; conditions: Lodderomyces parapsilosis
# [25] = system: Candida albicans; assay: Antifungal activity against Candida albicans 28#; format: functional
# [26] = Cytotoxicity against HUVEC assessed as cell viability at 64 ug/ml incubated for 24 hrs by CCK-8 assay; format: toxicity, cell-based; conditions: human, HUVEC cells, at 64 µg/mL, read-out: Activity
# [27] = system: Nannizzia gypsea; assay: Antifungal activity against Microsporum gypseum; format: functional
# [28] = system: [Candida] auris; assay: Antifungal activity against Candida auris BS12372; format: functional; conditions: Candidozyma auris
# [29] = system: Candida albicans; assay: Antifungal activity against Candida albicans 12#; format: functional
# [30] = system: Pichia kudriavzevii; assay: Antifungal activity against Candida krusei 467; format: functional
# [31] = target: T1, Lanosterol 14-alpha demethylase; assay: Inhibition of CYP51 in Candida albicans SC5314 assessed as ergosterol level at 4 ug/ml measured after 12 hrs by GC-MS analysis (reference value: 72.58%); set-up: scale not given: the % may be the effect or the level left; conditions: at 4 µg/mL
# [32] = system: Candida parapsilosis; assay: Antifungal activity against Candida parapsilosis 660; format: functional; conditions: Lodderomyces parapsilosis
# [33] = system: Aspergillus fumigatus; assay: Antifungal activity against Aspergillus fumigatus 7544 incubated for 48 hrs by microbroth dilution method; format: functional
# [34] = Induction of drug resistance in Candida albicans SC5314 assessed as increase in MIC after 2 weeks (reference value: 0.5 microg/ml); format: functional; conditions: SC5314, 336 h
# [35] = system: Cryptococcus neoformans; assay: Antifungal activity against Cryptococcus neoformans 32605; format: functional
# [36] = system: Candida parapsilosis; assay: Antifungal activity against Candida parapsilosis 22019; format: functional; conditions: Lodderomyces parapsilosis
# [37] = system: Pichia kudriavzevii; assay: Antifungal activity against Candida krusei 397; format: functional
# [38] = system: Pichia kudriavzevii; assay: Antifungal activity against Candida krusei 629; format: functional
# [39] = system: Candida albicans; assay: Antifungal activity against Candida albicans 305; format: functional
# [40] = system: Candida parapsilosis; assay: Antifungal activity against Candida parapsilosis 90018; format: functional; conditions: Lodderomyces parapsilosis
# [41] = system: Nakaseomyces glabratus; assay: Antifungal activity against Candida glabrata 537; format: functional
# [42] = system: Trichophyton rubrum; assay: Antifungal activity against Trichophyton rubrum cmccftla; format: functional
# [43] = system: Candida albicans; assay: Antifungal activity against Candida albicans 100 infected in ICR mouse assessed as delay in mortality at 0.25 mg/kg, po qd infected with fungus for 2 hrs prior to compound addition for 7 days and measured for 20 days; format: functional, organism-based; conditions: time 20.0 day
# [44] = target: T1, Lanosterol 14-alpha demethylase; assay: Inhibition of CYP51 in Candida albicans SC5314 assessed as eburicol level at 0.5 ug/ml measured after 12 hrs by GC-MS analysis (reference value: 0.00%); set-up: scale not given: the % may be the effect or the level left; conditions: at 0.5 µg/mL
# [45] = Induction of drug resistance in Candida albicans SC5314 assessed as increase in MIC after 26 days; format: functional; conditions: SC5314, 624 h, time 26 day
# [46] = target: T1, Lanosterol 14-alpha demethylase; assay: Inhibition of CYP51 in Candida albicans SC5314 assessed as lanosterol level at 4 ug/ml measured after 12 hrs by GC-MS analysis (reference value: 2.18%); set-up: scale not given: the % may be the effect or the level left; conditions: at 4 µg/mL
# [47] = system: Cryptococcus neoformans; assay: Antifungal activity against Cryptococcus neoformans H99 incubated for 72 hrs by microbroth dilution method; format: functional
# [48] = system: Candida albicans; assay: Antifungal activity against Candida albicans 100 infected in ICR mouse assessed as median survival time at 0.25 mg/kg, po qd infected with fungus for 2 hrs prior to compound addition for 7 days and measured for 20 days; format: functional; conditions: time 20 day
# [49] = Induction of hemolysis in rabbit RBC at 32 ug/ml incubated for 1 hr; format: toxicity, cell-based, Oryctolagus cuniculus, Erythrocyte; conditions: red blood cells, at 32 µg/mL, read-out: Activity
# [50] = Induction of hemolysis in rabbit RBC at 16 ug/ml incubated for 1 hr; format: toxicity, cell-based, Oryctolagus cuniculus, Erythrocyte; conditions: red blood cells, at 16 µg/mL, read-out: Activity
compound,measurement,setting,value
OC(Cn1cncn1)(Cn1cncn1)c1ccc(F)cc1F [FLUCONAZOLE],MIC,[1],> 64 µg/mL
same,MIC,[2],0.5 µg/mL
same,Activity,[3],Active
same,MIC,[4],> 64 µg/mL
same,Activity,[5],5.77%
same,Time,[6],8.5 days
same,MIC,[7],> 64 µg/mL
same,MIC,[8],> 64 µg/mL
same,"hemolysis at 1 h, 64 ug/ml",[9],1.01%
same,MIC,[10],2 µg/mL
same,"viability at 24 h, 64 ug/ml",[11],101%
same,Time,[12],14 days
same,MIC,[13],> 64 µg/mL
same,MIC,[14],4 µg/mL
same,MIC,[15],> 64 µg/mL
same,MIC,[16],> 64 µg/mL
same,Activity,[17],87.88%
same,MIC,[18],0.25 µg/mL
same,MIC,[19],> 64 µg/mL
same,Activity,[20],4.69%
same,Activity,[21],18.14%
same,MIC,[22],0.5 µg/mL
same,Activity,[23],Active
same,MIC,[24],2 µg/mL
same,MIC,[25],2 µg/mL
same,"viability at 24 h, 64 ug/ml",[26],88.4%
same,MIC,[27],32 µg/mL
same,MIC,[28],> 64 µg/mL
same,MIC,[29],> 64 µg/mL
same,MIC,[30],4 µg/mL
same,Activity,[31],0.62%
same,MIC,[32],0.5 µg/mL
same,MIC,[33],> 64 µg/mL
same,MIC,[34],4 µg/mL
same,MIC,[35],0.5 µg/mL
same,MIC,[36],2 µg/mL
same,MIC,[37],2 µg/mL
same,MIC,[38],4 µg/mL
same,MIC,[39],> 64 µg/mL
same,MIC,[40],0.5 µg/mL
same,MIC,[41],2 µg/mL
same,MIC,[42],8 µg/mL
same,Activity,[43],Active
same,Activity,[44],2.61%
same,MIC,[45],16 µg/mL
same,Activity,[46],5.73%
same,MIC,[47],0.5 µg/mL
same,Time,[48],8.5 days
C[C@@H]1[C@H](O)[C@@H](C)/C=C/C=C/C=C/C=C/C=C/C=C/C=C/[C@H](O[C@@H]2O[C@H](C)[C@@H](O)[C@H](N)[C@@H]2O)C[C@@H]2O[C@](O)(C[C@@H](O)C[C@@H](O)[C@H](O)CC[C@@H](O)C[C@@H](O)CC(=O)O[C@H]1C)C[C@H](O)[C@H]2C(=O)O [AMPHOTERICIN B],"hemolysis at 1 h, 32 ug/ml",[49],65.2%
same,"hemolysis at 1 h, 64 ug/ml",[9],102%
same,"viability at 24 h, 64 ug/ml",[11],63.3%
same,"hemolysis at 1 h, 16 ug/ml",[50],24.7%
same,"viability at 24 h, 64 ug/ml",[26],78.2%
